# In patent US5677297A, “Benzazepine-, benzoxazepine- and benzothiazepine-n-acetic acid derivatives, process for their preparation and pharmaceutical compositions containing them” (Solvay Pharmaceuticals GmbH, priority 1995, dated 1997):
# Experiment: In vivo determination of the effect on diuresis/natriuresis in volume-loaded rats
# Set-up: species or system rat (male Wistar)
# Conditions: urine collected over 60 min
# Protocol: 4. In vivo determination of the effect of the substances on diuresis/natriuresis in volume-loaded rats.
# The in vivo activity was investigated in volume-loaded rats. In this experiment a high cardiac filling pressure was caused by infusion of isotonic sodium chloride solution, which results in ANP release and thus diuresis/natriuresis.
# The tests are carried out with male Wistar rats having a body weight of 200-400 g. Under neuroleptanalgesia (fentanyl; Hypnorm™, manufactured by Janssen), a catheter was placed in the right femoral vein for the baseline infusion and the volume loading with isotonic sodium chloride solution. After the abdominal cavity had been opened, a second catheter was inserted into the bladder, and the urethra was tied off so that it was possible to measure the urine volume, natriuresis and kaliuresis.
# The abdominal cavity was closed again and the animals received a continuous infusion with sodium chloride solution (0.5 ml/100 g body weight) throughout the 2 hours of the test. After an equilibration period of 30 minutes, in a preliminary phase before the test substance was given, urine samples were collected three times over a period of 10 minutes in each case. These preliminary values ("predrug" values) were determined in order to check that there was a continuous flow of urine in the test animals.
# The solutions containing test substances were then administered intravenously (bolus injection into the femoral vein) or orally (by gavage) to groups of 10 rats each. With both modes of administration, in each case one control group of animals received only placebo solutions which contained no active substance. 5 Minutes after i.v. administration or 120 minutes after oral administration of the substances, the rats were loaded with an increased volume of sodium chloride solution i.v. (2 ml/100 g body weight in 2 minutes) and the urine was collected over a period of 60 min. The amounts of urine produced in this period were determined, and the sodium and potassium contents therein were measured. The increase in excretion which took place under volume loading by comparison with the preliminary values was deduced from the resulting amounts of urine.
# Furthermore, the amounts of sodium and potassium excreted under volume loading after administration of test substance are also indicated as a percentage of the amounts of sodium and potassium excreted under volume loading after placebo administration.
smiles,measurement,setting,value
"O=C(O)CN1C(=O)[C@@H](NC(=O)C2(C[C@@H](CCc3ccccc3)C(=O)O)CCCC2)CCc2ccccc21 [Example 8, (3S,2'R)-3-[1-(2'-Carboxy-4'-phenylbutyl)cyclopentane-1-carbonylamino]-2,3,4,5-tetrahydro-2-oxo-1H-1-benzazepine-1-acetic acid]",Increase in the excretion of urine under volume loading after administration of test substance as % based on the increase after placebo administration,0.1 mg/kg i.v.,123.5%
same,Increase in the excretion of urine under volume loading after administration of test substance as % based on the increase after placebo administration,1.0 mg/kg i.v.,153.7%
same,"K excretion under volume loading, amount excreted after administration of test substance as % of the amount excreted after placebo administration",0.1 mg/kg i.v.,80.8%
same,"K excretion under volume loading, amount excreted after administration of test substance as % of the amount excreted after placebo administration",1.0 mg/kg i.v.,121.8%
same,"Na excretion under volume loading, amount excreted after administration of test substance as % of the amount excreted after placebo administration",0.1 mg/kg i.v.,160.9%
same,"Na excretion under volume loading, amount excreted after administration of test substance as % of the amount excreted after placebo administration",1.0 mg/kg i.v.,230.4%
